Results: ChEMBL document CHEMBL1201862, “PubChem BioAssay data set” (2004)
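Five concentrations, 48 hours, 96-well plates. GI50 = concentration required for 50% inhibition of growth.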 Calls of active or inactive are those of the source. Rule as the data show it: active = GI50 up to about 1.1 µM and inactive = higher.

What was measured:
Assay in all cases: NCI tumour cell line growth inhibition, 48 h
[1] = test system: BT-549
[2] = test system: CAKI-1
[3] = test system: COLO 205
[4] = test system: DU-145
[5] = test system: EKVX
[6] = test system: HCC 2998
[7] = test system: HCT-15
[8] = test system: HOP-62
[9] = test system: HT-29
[10] = test system: LOX IMVI
[11] = test system: M14
[12] = test system: MDA-MB-231
[13] = test system: NCI-H460
[14] = test system: NCI/ADR-RES
[15] = test system: OVCAR-5
[16] = test system: SK-MEL-5
[17] = test system: SNB-19
[18] = test system: SNB-75
[19] = test system: UACC-257
[20] = test system: UACC-62

Structure (SMILES) | GI50 [1] | GI50 [2] | GI50 [3] | GI50 [4] | GI50 [5] | GI50 [6] | GI50 [7] [µM] | GI50 [8] | GI50 [9] | GI50 [10] | GI50 [11] | GI50 [12] | GI50 [13] | GI50 [14] | GI50 [15] | GI50 [16] | GI50 [17] | GI50 [18] | GI50 [19] | GI50 [20]
O=C1C(Cl)C(c2cc3cc(Br)ccc3nc2Cl)N1c1ccc(Cl)cc1 (centres undefined) | 4.4 µM (inactive) | 4.43 µM (inactive) | 4.89 µM (inactive) | 6.95 µM (inactive) | 4.16 µM (inactive) | 4.36 µM (inactive) | 4.86 | 9.68 µM (inactive) | 7.16 µM (inactive) | 0.906 µM (active) | 5.85 µM (inactive) | 3.9 µM (inactive) | 6.59 µM (inactive) | 5.75 µM (inactive) | 10.7 µM (inactive) | 3.21 µM (inactive) | 8.43 µM (inactive) | 7.83 µM (inactive) | 4.81 µM (inactive) | 4.22 µM (inactive)
N=C(N)N/N=C/c1c(-c2ccc([N+](=O)[O-])cc2)nc2sc(Cl)cn12 | 1.8 µM (inactive) | 1.67 µM (inactive) | 0.658 µM (active) | 1.11 µM (active) | 0.611 µM (active) | 0.26 µM (active) | 0.312 | 0.635 µM (active) | 1.18 µM (inactive) | 0.871 µM (active) | 1.37 µM (inactive) | 0.262 µM (active) | 1.73 µM (inactive) | 1.46 µM (inactive) | 1.21 µM (inactive) | 0.891 µM (active) | 0.667 µM (active) | 0.593 µM (active) |  | 1.6 µM (inactive)
COc1ccc(C2SC(=N)Nc3c2c(C)nn3C(=O)c2ccc(Cl)cc2)cc1 (centres undefined) | > 10 µM (inactive) | > 10 µM (inactive) | > 10 µM (inactive) | > 10 µM (inactive) | > 10 µM (inactive) | > 10 µM (inactive) | > 10 | > 10 µM (inactive) | > 10 µM (inactive) | > 10 µM (inactive) | > 10 µM (inactive) | > 10 µM (inactive) | > 10 µM (inactive) | > 10 µM (inactive) | > 10 µM (inactive) | > 10 µM (inactive) | > 10 µM (inactive) | > 10 µM (inactive) | > 10 µM (inactive) | > 10 µM (inactive)
CC(C)Cn1cnc2c(SCc3ccc(Cl)cc3Cl)nc(N)nc21 | 29.2 µM (inactive) | 49 µM (inactive) | 11.5 µM (inactive) | > 100 µM (inactive) | 14.5 µM (inactive) | 13.9 µM (inactive) | 16 | 49.7 µM (inactive) | 27 µM (inactive) | 18.7 µM (inactive) | 32.4 µM (inactive) | 39.1 µM (inactive) | 12 µM (inactive) | 26.5 µM (inactive) | 37.8 µM (inactive) | 10 µM (inactive) | 44.3 µM (inactive) | 42.8 µM (inactive) | 15.5 µM (inactive) | 19.8 µM (inactive)
CNc1c2cccc(C)c2nc2c(C(=O)NCCN(C)C)cccc12 | 1.04 µM (active) | < 0.0344 µM (active) | 0.0423 µM (active) | 0.0946 µM (active) | 0.151 µM (active) | 0.0322 µM (active) | 0.115 | 0.164 µM (active) | < 0.0197 µM (active) | 0.112 µM (active) | 0.207 µM (active) | < 0.0498 µM (active) | 0.0435 µM (active) | 0.265 µM (active) | 0.162 µM (active) | 0.18 µM (active) | 0.0805 µM (active) | 0.051 µM (active) | 0.211 µM (active) | 0.167 µM (active)
COc1ccc([C@@]23OC[C@@H]4[C@@H](OC[C@@H]42)c2cc(OC)c(OC)cc23)cc1OC | > 100 µM (inactive) | > 100 µM (inactive) | > 100 µM (inactive) | > 100 µM (inactive) | > 100 µM (inactive) | > 100 µM (inactive) | > 100 | > 100 µM (inactive) |  | > 100 µM (inactive) | > 100 µM (inactive) | > 100 µM (inactive) | > 100 µM (inactive) | > 100 µM (inactive) | > 100 µM (inactive) | > 100 µM (inactive) | > 100 µM (inactive) | > 100 µM (inactive) |  | > 100 µM (inactive)
O=C(O)C1=C(C(=O)O)N(c2ccncc2)C(c2ccco2)=CC1c1ccccc1[N+](=O)[O-] (centres undefined) | 13.2 µM (inactive) | 15.5 µM (inactive) | 14.2 µM (inactive) | 12.1 µM (inactive) | 11.2 µM (inactive) | 1.9 µM (inactive) | 1.81 | 13.4 µM (inactive) | 2.18 µM (inactive) | 2.01 µM (inactive) | 7.01 µM (inactive) | 14.2 µM (inactive) | 12.6 µM (inactive) | 22.6 µM (inactive) | 15 µM (inactive) | 5.82 µM (inactive) | 12.9 µM (inactive) | 7.4 µM (inactive) | 2.22 µM (inactive) | 15.3 µM (inactive)
CCCCCC(CO)C(O)(C(F)(F)F)C(F)(F)F (centres undefined) | > 10 µM (inactive) | > 10 µM (inactive) | > 10 µM (inactive) | > 10 µM (inactive) | > 10 µM (inactive) | > 10 µM (inactive) | > 10 | > 10 µM (inactive) | > 10 µM (inactive) | > 10 µM (inactive) | > 10 µM (inactive) | > 10 µM (inactive) | > 10 µM (inactive) | > 10 µM (inactive) | > 10 µM (inactive) | > 10 µM (inactive) | > 10 µM (inactive) | > 10 µM (inactive) | > 10 µM (inactive) | > 10 µM (inactive)
O=CC1C(Cl)=Nc2nc3ccccc3n2C1c1ccccc1 (centres undefined) | 15.2 µM (inactive) | 21.4 µM (inactive) | 19.2 µM (inactive) | 16 µM (inactive) | 25.2 µM (inactive) | 18.2 µM (inactive) | 16.2 | 18.1 µM (inactive) | 19.1 µM (inactive) | 15.5 µM (inactive) | 23.7 µM (inactive) | 17.1 µM (inactive) | 55.2 µM (inactive) | 24 µM (inactive) | 23.2 µM (inactive) | 19.6 µM (inactive) | 25.5 µM (inactive) | 17 µM (inactive) | 22.6 µM (inactive) | 24.7 µM (inactive)
Cn1c(SCc2ccc([N+](=O)[O-])cc2)nnc1C12CC3CC(CC(C3)C1)C2 | > 10 µM (inactive) | > 10 µM (inactive) | > 10 µM (inactive) | > 10 µM (inactive) | > 10 µM (inactive) | > 10 µM (inactive) | > 10 | > 10 µM (inactive) | > 10 µM (inactive) | > 10 µM (inactive) | > 10 µM (inactive) | > 10 µM (inactive) | > 10 µM (inactive) | > 10 µM (inactive) | > 10 µM (inactive) | > 10 µM (inactive) | > 10 µM (inactive) | 4.66 µM (inactive) |  | > 10 µM (inactive)
Cc1ccc(S(=O)(=O)NN=C2C(C)CC(C(C)(C)C)CC2C)cc1 (centres undefined) | 17.9 µM (inactive) | 16.9 µM (inactive) | 18.4 µM (inactive) | 19.7 µM (inactive) |  | 17.7 µM (inactive) | 18.2 | 16.4 µM (inactive) | 18.5 µM (inactive) | 17.9 µM (inactive) | 13.5 µM (inactive) | 28.6 µM (inactive) | 18.8 µM (inactive) | 31.6 µM (inactive) | 17.5 µM (inactive) | 17.3 µM (inactive) | 26.3 µM (inactive) | 20.4 µM (inactive) | 19.1 µM (inactive) | 32.3 µM (inactive)
CC12CCCC(O)C1CCC1=CC3(CCC12)SCCS3 (centres undefined) | > 10 µM (inactive) | > 10 µM (inactive) | > 10 µM (inactive) | > 10 µM (inactive) |  | > 10 µM (inactive) | > 10 | > 10 µM (inactive) | > 10 µM (inactive) | > 10 µM (inactive) | > 10 µM (inactive) | > 10 µM (inactive) |  | > 10 µM (inactive) |  | > 10 µM (inactive) | > 10 µM (inactive) | > 10 µM (inactive) | > 10 µM (inactive) | > 10 µM (inactive)
CSc1c2c(C)n[nH]c2nn1-c1ccccc1 | 80 µM (inactive) | 21.1 µM (inactive) | 62.2 µM (inactive) | 88.3 µM (inactive) | 83.4 µM (inactive) | 57.8 µM (inactive) | 37.2 |  | 36 µM (inactive) | 24.1 µM (inactive) | 81.7 µM (inactive) | 18.4 µM (inactive) | > 100 µM (inactive) | > 100 µM (inactive) | > 100 µM (inactive) | > 100 µM (inactive) | > 100 µM (inactive) | > 100 µM (inactive) | > 100 µM (inactive) | 68.1 µM (inactive)
c1ccc(-c2sc(-c3cccs3)cc2Cc2cccs2)cc1 | > 10 µM (inactive) | > 10 µM (inactive) | > 10 µM (inactive) | > 10 µM (inactive) | > 10 µM (inactive) | > 10 µM (inactive) | > 10 | > 10 µM (inactive) | > 10 µM (inactive) | > 10 µM (inactive) | > 10 µM (inactive) | > 10 µM (inactive) | > 10 µM (inactive) | > 10 µM (inactive) |  | > 10 µM (inactive) | > 10 µM (inactive) | > 10 µM (inactive) | > 10 µM (inactive) | > 10 µM (inactive)
O=C1c2ccccc2/C=C\C(c2ccccc2)=N/N1c1ccccc1Cl | 10.9 µM (inactive) | 16.9 µM (inactive) | > 10 µM (inactive) | 49.1 µM (inactive) | 22.5 µM (inactive) | 30.3 µM (inactive) | 29.5 | 23.2 µM (inactive) | 17.5 µM (inactive) | 25.1 µM (inactive) | 21.9 µM (inactive) | 11.9 µM (inactive) | 28.6 µM (inactive) | 15.9 µM (inactive) | 72.3 µM (inactive) | 13.4 µM (inactive) | 19.1 µM (inactive) | 25.9 µM (inactive) | 26.8 µM (inactive) | 
